These results are taken from ChEMBL document CHEMBL1132808, “Solid-phase synthesis of di- and tripeptidic hydroxamic acids as inhibitors of procollagen C-proteinase” (Bioorg Med Chem Lett, 2000).

This experiment has as its target T1, Bone morphogenetic protein 1 (Homo sapiens, UniProt P13497).
T1 sequence (P13497 whole entry): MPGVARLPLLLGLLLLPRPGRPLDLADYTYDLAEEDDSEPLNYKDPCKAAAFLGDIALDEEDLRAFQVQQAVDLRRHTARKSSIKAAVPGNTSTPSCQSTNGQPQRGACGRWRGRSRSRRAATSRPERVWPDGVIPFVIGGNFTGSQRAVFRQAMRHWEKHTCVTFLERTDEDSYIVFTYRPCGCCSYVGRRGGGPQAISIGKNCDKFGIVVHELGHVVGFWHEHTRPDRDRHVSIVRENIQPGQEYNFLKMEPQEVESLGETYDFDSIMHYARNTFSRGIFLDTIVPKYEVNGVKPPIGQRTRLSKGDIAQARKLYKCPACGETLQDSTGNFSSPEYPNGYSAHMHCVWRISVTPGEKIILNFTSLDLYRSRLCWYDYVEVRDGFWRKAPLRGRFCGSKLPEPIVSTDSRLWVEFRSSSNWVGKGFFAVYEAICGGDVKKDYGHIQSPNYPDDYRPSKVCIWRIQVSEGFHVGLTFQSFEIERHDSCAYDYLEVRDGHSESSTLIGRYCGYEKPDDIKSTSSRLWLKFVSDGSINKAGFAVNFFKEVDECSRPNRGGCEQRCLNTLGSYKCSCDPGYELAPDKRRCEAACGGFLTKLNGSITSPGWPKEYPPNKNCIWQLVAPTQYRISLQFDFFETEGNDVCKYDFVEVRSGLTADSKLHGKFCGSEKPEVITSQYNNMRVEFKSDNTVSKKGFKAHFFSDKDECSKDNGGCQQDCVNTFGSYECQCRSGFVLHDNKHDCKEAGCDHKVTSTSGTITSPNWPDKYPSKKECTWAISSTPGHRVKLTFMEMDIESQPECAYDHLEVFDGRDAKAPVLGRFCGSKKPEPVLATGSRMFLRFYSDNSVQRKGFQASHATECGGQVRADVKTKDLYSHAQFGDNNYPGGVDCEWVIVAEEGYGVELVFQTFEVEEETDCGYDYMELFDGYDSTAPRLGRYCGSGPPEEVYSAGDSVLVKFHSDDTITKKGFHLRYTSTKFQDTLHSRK
Briefly: Inhibitory effect against Procollagen C-terminal proteinase.

Molecules are shown by their SMILES.

On to `CC[C@@H](C)[C@@H](NC(=O)OCc1ccccc1)C(=O)N[C@H](Cc1cscn1)C(=O)NO` (stereo in doubt; form 1), for which 110 nM corresponded to half-maximal inhibition (IC50).
Then `CC[C@@H](C)[C@@H](NC(=O)OCc1ccccc1)C(=O)N[C@H](Cc1cscn1)C(=O)NO` (stereo in doubt; form 2), with 110 nM.

As usually defined, the IC50 is the point on the concentration scale where inhibition reaches its midpoint. Low values mean greater potency, high ones weaker potency.
